In article PMC12040169 (PLOS Biology, 2025):

test: in vitro; details: human, hela cells, % viability

SMILES | viability at 28.5 h, 10 µM [%]
CC(C)c1nc(NCc2nnc3n2CCC3)nc(N(C)C)n1 [CBK305117] | 99.5
O=C(c1cc2ccccc2o1)N1CCN(c2cccc(C(F)(F)F)c2)CC1 [CBK297507] | 96.8
O=C(COc1ccccc1)Nc1nccs1 [CBK058018] | 93.4
CN(C)c1cccc(-c2cc(Nc3ccc4c(c3)OCCO4)ncn2)c1 [CBK090808] | 66.3
CC1=CC(c2ccc(Cl)cc2)n2nc(NC(=O)CCC(=O)O)nc2N1 (stereo not drawn) [CBK264331] | 100
O=C(NCCO)c1cccc(-c2cnc3[nH]c(=O)n(Cc4ccccn4)c3n2)c1 [CBK065034] | 96.5
N#Cc1cccc(C(=O)N2CCN(c3ncccn3)CC2)c1 [CBK144498] | 82.2
CCOC(=O)C(C(C)=O)(N1CCOCC1)N1CCOCC1 [CBK261173] | 90.2
COc1ccc(CCC(=O)Nc2nnc[nH]2)cc1 [CBK027896] | 101
CC1CCc2n[nH]c(C(=O)N3CCc4ncc(Cl)cc4C3)c2C1 (stereo not drawn) [CBK284874] | 93.6
Cc1nn(C)c(Cl)c1CN1CCOC(c2ccccc2)C1 (stereo not drawn) [CBK305244] | 83.2
Cc1cccc(C)c1NC(=O)Cn1nnc(-c2ccc(CN3CCC(C)CC3)cc2)n1 [CBK121194] | 87.2
CN1CCN(c2ccc(-c3cnc4[nH]c(=O)n(C5CC5)c4n3)cc2)CC1 [CBK064899] | 89.7
O=C(CN1CCC(O)(Cc2ccccc2)CC1)N1CCCCCC1 [CBK283500] | 96.9
O=c1[nH]c2cccc3c2n1C[C@H](NCCc1ccccc1)C3 [CBK016688C] | 105
CC(C)Nc1nc2ccccc2nc1Sc1cccc(C(=O)O)c1 [CBK115955T] | 104
CCn1cc(CCC(=O)NC2CCCOC2)c2ccccc21 (stereo not drawn) [CBK283256] | 88.7
Cc1cc(C)n(CC(C)CNC(=O)CCCN(C)C)n1 (stereo not drawn) [CBK304831] | 93
CC(C)(C)OC(=O)CN1C(=O)N[C@@H]2CCCC[C@@H]21 [CBK003423] | 84.8
Cc1cccnc1C(Cc1ccsc1)NS(=O)(=O)c1ccc2[nH]c(=O)[nH]c(=O)c2c1 (stereo not drawn) [CBK286356] | 111
Nc1ncc(-c2cccs2)nc1-c1ccc(F)c(Cl)c1 [CBK063990] | 101
CCN(CC)CC(O)Cn1c(-c2cccc([N+](=O)[O-])c2)nc(=S)c2c1CCCC2 (stereo not drawn) [CBK265700] | 97.1
COc1ccc([C@@]23CC[C@@H](NC(=O)Nc4ccc(C(C)(C)C)cc4)C[C@@H]2N(C)CC3)cc1OC [CBK036469T] | 92

SMILES | viability at 28.5 h, 10 µM [%]
O=C(NCc1ccccn1)c1nn[nH]c1Nc1cccc(Cl)c1 [CBK288030] | 79.4
O=C(O)c1ccc(/C=N\NC(=O)C2COc3cc4ccccc4cc3O2)cc1 (stereo not drawn) [CBK262792] | 90.4
COC(=O)CCCNS(=O)(=O)c1ccc([N+](=O)[O-])cc1 [CBK261172] | 109
COc1ccc(CCN2C(=O)CC(N3CCN(c4ccccc4)CC3)C2=O)cc1OC (stereo not drawn) [CBK262354] | 106
Cc1ccc(Nc2nc(CSc3nnc(-c4ccccc4)o3)cs2)cc1 [CBK268455] | 99.7
CS(=O)(=O)N(CC(=O)Nc1ccccc1C(F)(F)F)Cc1ccc(Cl)cc1 [CBK267854] | 108
CCCc1[nH]nc(O)c1Cc1c(F)cccc1[N+](=O)[O-] [CBK075029] | 89.5
Cc1cc(C)c(S(=O)(=O)N(CC(=O)O)C2CCCCC2)c(C)c1 [CBK266663] | 92.6
COc1ccc([N+](=O)[O-])cc1Nc1nc(-c2ccccc2)nc2ccccc12 [CBK265913] | 95.4
COc1cc(CNC(=O)c2ccc(O)nc2)ccc1OCc1ccncc1 [CBK298297] | 96.9
O=C(Cc1cccc(F)c1)N1CCC(O)(c2ccccn2)CC1 [CBK283586] | 100
COc1cc(NC(=O)CC2SC(NC3CCCCC3)=NC2=O)c(OC)cc1Cl (stereo not drawn) [CBK059497] | 96.2
N/C(CC(=O)Nc1cc(Cl)cc(Cl)c1)=N\O [CBK228614] | 105
C=CCn1c(Cc2csc(NC(=O)c3cc4ccccc4o3)n2)n[nH]c1=S [CBK295329] | 104
CCOC(=O)NC(=S)NCCCn1ccnc1 [CBK018272] | 112
O=C(Cn1cccn1)NC(Cc1cccs1)c1nccs1 (stereo not drawn) [CBK285136] | 94.4
O=C1NCCCC12CCN(Cc1ccccc1N1CCCCC1)CC2 [CBK284878] | 95.5
COc1ccccc1-c1cnc(N)c(N2CCC(C(=O)O)CC2)n1 [CBK064082] | 96.1
CN(C)C(=O)c1ccc(-c2cnc3[nH]c(=O)n(CCCN4CCOCC4)c3n2)cc1 [CBK064828] | 108
Nn1c(SCc2cc(=O)[nH]c3ccccc23)nnc1C(O)c1ccccc1 (stereo not drawn) [CBK268405] | 99.2
N#Cc1c(N)nc2c(c1-c1ccc(Cl)cc1)CCCCCCCCCC2 [CBK262322] | 90.6
NC(=O)c1c(NC(=O)c2ccc(COc3ccc4ccccc4c3)o2)sc2c1CCCC2 [CBK265871] | 88.5
COc1ccc(C2NCCS2)cc1Br (stereo not drawn) [CBK021053] | 104

SMILES | viability at 28.5 h, 10 µM [%]
O=c1oc2c(CN3CCN(CCO)CC3)c(O)ccc2cc1-c1nc(-c2ccc(Br)cc2)cs1 [CBK264949] | 103
Cn1ncc2c(NCCCC3CCOC3)nc(C(C)(C)C)nc21 (stereo not drawn) [CBK307363] | 113
Cc1cccc(C(C)NC(=O)C2(Cn3ccnc3)CC2)n1 (stereo not drawn) [CBK306944] | 86.4
COc1ccc(S(=O)(=O)Nc2ccc(C(=O)O)cc2)cc1[N+](=O)[O-] [CBK266130] | 103
CCOc1ccccc1NC(=O)c1ccc(CS(=O)(=O)c2ccc(C)cc2)cc1 [CBK268572] | 95.1
Cc1ccc(C(=O)N2CCN(S(=O)(=O)N3CCCCCC3)CC2)cc1 [CBK269249] | 101
Cc1noc(C)c1S(=O)(=O)Nc1ccc2cc(Br)cnc2n1 [CBK073893] | 93.1
Cc1noc(NS(=O)(=O)c2ccc(NC(=O)c3cc(-c4ccccc4Cl)nc4ccccc34)cc2)c1C [CBK296108] | 80.6
CC1(C)CC(=O)C2=C(C1)NC(Nc1nc3ccccc3s1)=NC2c1cccnc1 (stereo not drawn) [CBK270025] | 99.4
NC(CCc1nc2ccccc2[nH]1)c1nc2ccccc2[nH]1 (stereo not drawn) [CBK269970] | 96.2
O=C(c1ccccc1)c1ccc(OCCO)cc1 [CBK000725] | 94
CCOC(=O)c1cnn2c(O)cc(CN(CC(C)(C)O)C(C)C)nc12 [CBK306133] | 93.6
O=C(c1cccnc1N1CCCCC1)N1CCCCC1 [CBK025882] | 109
CC(C)c1c(N)nc(SCc2ccccc2)nc1Cl [CBK016721] | 123
CCOC(=O)c1c(C)n(-c2ccccc2)c2ccc(O)c(CN(C)C)c12 [CBK261593C] | 91
CSCCC(=O)N1CCN(c2ncccn2)CC1 [CBK144509] | 90.3
[O-][S+]1c2ccccc2Oc2ccccc21 [CBK027634] | 94.7
C/C(=N\NC(=O)Cc1ccc([N+](=O)[O-])cc1[N+](=O)[O-])c1ccccc1O [CBK261175] | 88.8
COc1ccccc1-c1nnc(NCc2ccc3c(c2)OCO3)nc1-c1ccccc1OC [CBK286284] | 96.4
Cc1n[nH]c(C)c1CC(=O)N1CCCC(c2cc3ccccc3cn2)C1 (stereo not drawn) [CBK285018] | 103
CC[C@H]1CN(S(C)(=O)=O)CC[C@H]1CC(=O)NCc1ccco1 [CBK289141] | 89.2
O=C(Nc1ccc(S(=O)(=O)NCCN2CCOCC2)cc1)N1CCCC1 [CBK270015] | 89.8
O=C(O)COc1ccc(N2C(=O)c3ccc(-c4nc5ccccc5c(=O)o4)cc3C2=O)cc1 [CBK265659] | 106

SMILES | viability at 28.5 h, 10 µM [%]
CC(=O)c1ccc(-c2ccc(C(=O)NCC3COc4ccccc4O3)c(N(C)C(C)=O)n2)s1 (stereo not drawn) [CBK076637] | 114
COc1ccc(NC(=O)CSc2nc(O)cc(=O)[nH]2)cc1 [CBK261747] | 88.8
CC1(C)OCC2(CCN(C(C)(C)C)CC2)O1 [CBK038298] | 93.2
CCN(Cc1ccccc1)C(=O)Nc1ccccc1 [CBK012816] | 94.9
Oc1cccc(-c2nccnc2NCc2cccs2)c1 [CBK037343] | 88.8
COc1cc(C(=O)NC(C)C(=O)NN)cc(OC)c1OC (stereo not drawn) [CBK262609] | 106
O=C(CSc1nccn(-c2ccc(F)cc2)c1=O)Nc1ccc(F)cc1 [CBK287768] | 91.2
CCN(CC)c1ccc(/C=N/NC(=O)CC2=NNC(=O)C2)cc1 [CBK020059] | 91.8
O=C(c1nccs1)C1CCN(C(=O)C2(c3ccccc3)CC2)CC1 [CBK284206] | 97.4
OC1(Cn2ccc3ncccc32)CCN(Cc2cccs2)CC1 [CBK284783] | 88.3
O=S(=O)(c1ccc(-c2ccccc2)cc1)N1CCCN(CCCO)CC1 [CBK063043] | 102
CC(c1ccc(F)c(F)c1)N(C)C(=O)CN1CCCc2occc2C1 (stereo not drawn) [CBK304456] | 82.9
COCCCNC(=O)Cn1c(-c2ccc(F)cc2)cc2cccnc21 [CBK285385] | 88.5
Cc1cccc(OCCCn2cncc2-c2cnn(C)c2)c1 [CBK281763] | 82
CCOc1ccccc1-n1c(CN2CCN(C(=O)c3ccco3)CC2)nc2ccccc2c1=O [CBK267203] | 86.4
COc1ccc(C2(O)CCN(CC(O)c3ccc4c(c3)CCC4)CC2)cc1 (stereo not drawn) [CBK286334] | 95.9
Cc1ccnc(-n2sc3ccccc3c2=O)n1 [CBK116499] | 97.1
O=C(Nn1cnnc1)c1ccccc1CCc1ccccc1 [CBK268578] | 87.7
O=C1O[C@@H](CO)CN1c1ccc(N(Cc2ccccc2)Cc2ccccc2)c(F)c1 [CBK016873] | 103
COc1ccccc1-c1cccc(C2CCCN(C(=O)Cc3c[nH]c4ccccc34)C2)n1 (stereo not drawn) [CBK286143] | 100
O=C(OCc1ccccc1)N1CCC(c2nc3ccc(Br)cc3[nH]2)CC1 [CBK153849] | 93.7
